Measured values: ChEMBL document CHEMBL4673311, “Development of pyrimidone D1 dopamine receptor positive allosteric modulators” (Bioorg Med Chem Lett, 2021)

Columns and labels:
[1] = target: D(1B) dopamine receptor (Homo sapiens) (UniProt P21918); assay: Positive allosteric modulator activity at human dopamine D5 receptor expressed in CHO-K1 cells assessed as fold change in dopamine Emax for beta-arrestin2 recruitment at 50 uM incubated for 90 mins by PathHunter assay relative to control; type: cell-based; details: filed as positive allosteric modulator
Sequence of D(1B) dopamine receptor (Homo sapiens) (P21918 whole entry): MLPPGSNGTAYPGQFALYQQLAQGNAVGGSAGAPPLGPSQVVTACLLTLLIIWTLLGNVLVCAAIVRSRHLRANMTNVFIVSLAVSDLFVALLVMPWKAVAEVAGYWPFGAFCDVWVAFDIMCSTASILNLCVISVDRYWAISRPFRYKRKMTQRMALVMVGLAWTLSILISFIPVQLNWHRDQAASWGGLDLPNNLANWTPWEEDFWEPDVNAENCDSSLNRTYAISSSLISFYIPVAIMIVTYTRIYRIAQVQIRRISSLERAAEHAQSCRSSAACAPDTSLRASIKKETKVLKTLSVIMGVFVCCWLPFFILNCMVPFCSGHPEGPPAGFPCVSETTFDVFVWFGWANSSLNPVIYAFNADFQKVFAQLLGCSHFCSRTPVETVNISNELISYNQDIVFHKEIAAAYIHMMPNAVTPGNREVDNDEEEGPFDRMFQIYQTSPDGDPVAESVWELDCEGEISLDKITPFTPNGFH

[2] = target: D(1B) dopamine receptor (Homo sapiens) (UniProt P21918); assay: Positive allosteric modulator activity at human dopamine D5 receptor expressed in CHO-K1 cells assessed as fold change in dopamine EC50 for beta-arrestin2 recruitment at 50 uM incubated for 90 mins by PathHunter assay relative to control; type: cell-based; details: filed as positive allosteric modulator

- fold change (FC) [1]: 1.5
- fold change (FC) [2]: 2.84
SMILES: Cn1c2ccccc2c(=O)c2c(=O)n(-c3ccccc3)c(C3CCCCC3)nc21
